What was measured:
mP2X1 receptor [1] = target: T1, mP2X1 receptor (Mus musculus, UniProt P51576, R139A); assay: cell-based
T1 construct: gene P2rx1

mP2X1 receptor [2] = target: T2, mP2X1 receptor (Mus musculus, UniProt P51576); assay: cell-based; set-up: gene P2rx1
T2 sequence (P51576 1-399): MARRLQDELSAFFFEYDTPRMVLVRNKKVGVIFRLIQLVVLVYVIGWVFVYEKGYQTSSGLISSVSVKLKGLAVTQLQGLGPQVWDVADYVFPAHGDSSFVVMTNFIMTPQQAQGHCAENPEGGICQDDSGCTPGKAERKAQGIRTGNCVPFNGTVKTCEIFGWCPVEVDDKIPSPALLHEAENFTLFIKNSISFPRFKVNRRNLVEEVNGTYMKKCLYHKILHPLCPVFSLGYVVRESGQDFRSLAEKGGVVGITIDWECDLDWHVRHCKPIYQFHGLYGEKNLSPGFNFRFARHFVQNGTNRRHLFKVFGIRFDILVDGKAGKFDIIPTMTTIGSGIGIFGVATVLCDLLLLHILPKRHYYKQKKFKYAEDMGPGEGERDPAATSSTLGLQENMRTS

mP2X1 receptor [3] = target: T3, mP2X1 receptor (Mus musculus, UniProt P51576, K140A); assay: cell-based
T3 construct: gene P2rx1
T3 sequence (P51576 whole entry K140A): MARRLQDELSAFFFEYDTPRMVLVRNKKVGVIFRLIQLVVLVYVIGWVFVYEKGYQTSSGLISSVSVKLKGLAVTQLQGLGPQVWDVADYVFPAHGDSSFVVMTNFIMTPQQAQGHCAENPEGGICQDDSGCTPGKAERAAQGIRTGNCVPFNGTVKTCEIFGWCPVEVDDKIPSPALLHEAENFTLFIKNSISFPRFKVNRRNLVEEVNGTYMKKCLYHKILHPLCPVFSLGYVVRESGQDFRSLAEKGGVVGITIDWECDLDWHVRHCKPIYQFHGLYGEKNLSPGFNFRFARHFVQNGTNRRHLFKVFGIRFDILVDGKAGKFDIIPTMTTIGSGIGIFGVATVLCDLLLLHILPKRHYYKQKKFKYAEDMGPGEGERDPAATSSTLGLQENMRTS

mP2X1 receptor [4] = target: T4, mP2X1 receptor (Mus musculus, UniProt P51576, K190A); assay: cell-based
T4 construct: gene P2rx1
T4 sequence (P51576 whole entry K190A): as the sequence (P51576 whole entry K140A) above, with A140K, K190A counted along it

mP2X1 receptor [5] = target: T2, mP2X1 receptor; assay: cryo-EM structure of the complex; assay type: binding; set-up: gene P2rx1; full-length wild type; cryo-EM: Sf9, C-terminal His and Flag tags after HRV-3C site, homotrimer in LMNG; electrophysiology: HEK293, pCDNA3.1, labelled with mCherry
mP2X1 receptor [6] = target: T2, mP2X1 receptor; assay: whole-cell patch clamp, HEK293, ATP-evoked mixed-cation current; assay type: cell-based; set-up: gene P2rx1; full-length wild type; electrophysiology: HEK293, pCDNA3.1, labelled with mCherry
[7] = target: the molecule itself; assay: cryo-EM structure; single-particle cryo-EM of purified mP2X1 in LMNG (20 mM HEPES pH 7.0, 150 mM NaCl, 0.002% LMNG), 4.0 mg/mL; without added Ca2+, with 1, 5 or 10 mM Ca2+, or with 5 mM Ca2+ and 10 uM BTFA

T1 sequence (P51576 whole entry R139A): as the sequence (P51576 whole entry K140A) above, with R139A, A140K counted along it

Nc1ncnc2c1ncn2[C@@H]1O[C@H](COP(=O)(O)OP(=O)(O)OP(=O)(O)O)[C@@H](O)[C@H]1O [ATP]
EC50 (mP2X1 receptor [1]): 5.29 µM
EC50 (mP2X1 receptor [2]): 0.829 µM
EC50 (mP2X1 receptor [3]): 10.3 µM
EC50 (mP2X1 receptor [4]): 6.74 µM
cryo-EM structure of the complex (mP2X1 receptor [5]; co-purified ATP, no exogenous ATP or Ca2+ added, three ATP per trimer, orthosteric site): EM maps revealed the presence of three clear ATP molecules within the structures

Nc1cc(C(F)(F)F)cc(C(F)(F)F)c1 [BTFA, 3,5-bis(trifluoromethyl)aniline]
IC50 (mP2X1 receptor [6]): 4.3 µM
cryo-EM structure of the complex (mP2X1 receptor [5]; 10 μM BTFA, 5 mM Ca2+, allosteric, top of central vestibule): we determined the cryo-EM structure of the P2X1–BTFA complex

B1: full-length, wild-type mouse P2X1 (mP2X1) receptor (receptor, UniProt P51576 1-399, looked up)
chain: T2 sequence (P51576 1-399)
notes: mouse P2X1 receptor (P2RX1), wild type, full length, cloned from mouse olfactory cortex cDNA; His tag and Flag tag at the C-terminus are connected by an HRV-3C protease recognition site; no cleavage is described; N-linked glycosylation is observed; also called P2RX1; P2XR1; not shown: Flag (1x), C-terminal, kept
stoichiometry N [7]: 3

— PMC13237026, “Structural basis for a central permeation pathway in the P2X1 receptor” (Cell Discovery, 2026)
